Source: patent US5066666A, “Aminoazole derivatives and their production and use” (Sumitomo Pharmaceuticals Company, Limited, priority 1986, dated 1991)
Like-named read-outs stand apart in the source and are kept apart here. One block for each molecule: values may come before it.

What was measured:
Arthus reaction [1] = test: Mice-Arthus Test; format: in vivo, male BABL/c mice; conditions: for minimal effective dose: Mus musculus, 3 h, orally 24 hr and 1 hr before the challenge, read-out: Minimum Effective Dose Arthus
Method: The activity of effect for rheumatoid arthritis may be estimated by effect for Arthus reaction. […] Two weeks later, mice were boosted by the i.v. injection of 8×10^7 SRBC and 5 day later the animals were challenged by the subcutaneous injection of 1×10^8 SRBC in 25 μl of PBS into the right hind footpad. The thickness of the SRBC-injection right hind paw and contralateral left hind paw were measured with micrometer 3 hr after the challenge. The difference between these two measurements is regarded as the oedema due to the Arthus reaction. Percentage inhibition of the reaction was determined by comparison with the positive control group. The test compounds were administered orally 24 hr and 1 hr before the challenge.

adjuvant arthritis [2] = test: Rat-Adjuvant Arthritis Test; format: in vivo, male Sprague-Dawley rats; conditions: for minimal effective dose: Rattus norvegicus, po, orally once a day for 5 days (day 15 to 19), lowest dose with significant reduction (p<0.001) of foot volume, read-out: Minimum Effective Dose Adjuvant Arthritis; for effect in rat adjuvant arthritis test, in words: in vivo
Text: Rat adjuvant arthritis test is one of a few and most useful pharmacological model for the investigation of human […] inflammation. It is known that the effective compounds to this model system are useful for treatment of rheumatoid arthritis, such as steroids or non-steroidal anti-inflammatory drugs (Oyo Yakuri, 5, 169 (1971).
According to the method of Winter et al., Arth. Rheum., 9, 394 (1966), male Sprague-Dawley rats, 6 weeks of age, were given subplantar injection of the adjuvant consisting of 1 mg of killed Mycobacterium butyricum (Difco) and 0.2 ml of liquid paraffin. Fourteen days after, the rats with established arthritis were treated by the drug as follows: the test compound was suspended in 5% gum arabic solution and orally given once a day for 5 days, day 15 to day 19. Control rats were given gum arabic in the same way. On day 19, the volume of right foot was determined with a plethusometer. The lowest dose which gave significant reduction (p<0.001)of the foot volume from that of the control group was regarded as a minimum effective dose (MED).

Arthus reaction [3] = conditions: background statement; cited from earlier work
adjuvant arthritis [4] = conditions: background statement; cited from earlier work
5-lipoxygenase = target: T1, 5-lipoxygenase (Cavia porcellus, UniProt A0A286X958); test: 5-Lypoxygenase Inhibitory Test; format: cell-based, Hartley guinea pigs; conditions: PMNs from guinea pigs, A23187 stimulated, [14C] arachidonic acid; Inhibition (%) classes
T1 construct: polymorphonuclear leukocytes (PMNs) from Hartley guinea pigs; endogenous in cells; host or cells: casein-elicited peritoneal polymorphonuclear leukocytes of Hartley guinea pigs (intact cells)
T1 sequence (A0A286X958 1-674): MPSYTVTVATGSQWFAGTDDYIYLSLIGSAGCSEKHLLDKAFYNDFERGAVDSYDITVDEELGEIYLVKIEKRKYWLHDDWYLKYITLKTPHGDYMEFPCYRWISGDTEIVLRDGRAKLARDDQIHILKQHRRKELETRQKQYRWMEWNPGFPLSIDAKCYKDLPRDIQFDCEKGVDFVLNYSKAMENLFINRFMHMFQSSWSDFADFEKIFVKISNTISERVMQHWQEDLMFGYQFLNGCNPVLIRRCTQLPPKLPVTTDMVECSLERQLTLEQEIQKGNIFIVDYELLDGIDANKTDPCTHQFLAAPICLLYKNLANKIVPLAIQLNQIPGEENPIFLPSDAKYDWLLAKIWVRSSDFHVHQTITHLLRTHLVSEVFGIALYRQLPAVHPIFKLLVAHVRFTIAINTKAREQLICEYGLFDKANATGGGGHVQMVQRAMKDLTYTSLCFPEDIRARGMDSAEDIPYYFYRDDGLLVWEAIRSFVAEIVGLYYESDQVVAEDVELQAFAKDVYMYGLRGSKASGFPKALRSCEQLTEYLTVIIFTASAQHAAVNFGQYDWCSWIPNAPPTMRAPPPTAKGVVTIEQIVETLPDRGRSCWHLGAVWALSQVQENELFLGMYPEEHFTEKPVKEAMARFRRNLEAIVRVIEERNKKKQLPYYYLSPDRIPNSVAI
Method: According to the method of Harvey et al., J. Pharmacol. Meth., 9, 147-155 (1983), polymorphonuclear leukocytes (PMNs) from Hartley guinea pigs weighting 280 to 350 g were elicited by intraperit oneal injection of 2% casein suspension (10 ml/100 g guiner pig weight), and collected 16-18 hrs later. The cells were washed with saline and finally suspended at 2.39×10^7 cells/ml in Krebs Ringer Bicarbonate buffer (KBR) pH 7.4.
935 μl of PMNs were aliquoted into 15 ml glass tubes and prewarmed to 37° C. in a shaking water bath. Drugs (10 μl of dimethylsulfoxide (DMSO)) were added 10 minutes prior to the addition of 1-^14 C-arachidonic acid (New England Neuclear Co.; 50 μl of 2 μCi/mlKBR) and calciumionophor, A23187 (Calbiochem Boehring Co.; 5 μl of 1 mg/mlDMSO). The reaction was terminated after a further 10 min by the addition of 0.2M citric acid (100 μl). Unstimulated controls were also included to determine the increased metabolism of arachidonic acid due to A23187. Samples were diluted with water (4 ml) and extracted twice with ethyl acetate (5 ml). The ethyl acetate was concentrated under a stream of nitrogen and two-thirds of the residue was applied to TLC plates. The plates were developed in toluene:dioxane:acetic acid=65:34:1.5at 10° C.
Radiochromatographic analysis of the labelled metabolites of [^14 C] arachidonic acid utilized a Berthold LB283 TLC Linear Analyzer. In samples and controls, a ratio of radioactivity of 5-HETE in metabolites to all of metabolites of [^14 C] arachidonic acid was calculated, and results were determined as percent inhibition calculated from those retios.

[5] = background statement, clinical use, cited from earlier work

Structure (SMILES): CC(c1cccc(C(=O)c2ccccc2)c1)c1cc(N)on1 (stereo not drawn) [Example 74]
minimal effective dose (Arthus reaction [1]): 50 mg/kg
minimal effective dose (adjuvant arthritis [2]): 2.5 mg/kg

Structure (SMILES): O=C(Nc1nc(-c2ccccc2)cs1)OCC(Cl)(Cl)Cl [lotifazole, 4-phenyl-2-(2',2',2'-trichloroethoxycarboxamido)thiazole]
effect in Arthus reaction, in words (Arthus reaction [3]): effective
effect in adjuvant arthritis test, in words (adjuvant arthritis [4]): non-effective

Structure (SMILES): CC(c1ccc(-c2ccccc2)c(F)c1)c1coc(N)n1 (stereo not drawn) [Example 7, 2-Amino-4-(1-(2-fluoro-4-biphenylyl)ethyl)oxazole]
minimal effective dose (Arthus reaction [1]): 10 mg/kg
minimal effective dose (adjuvant arthritis [2]): 10 mg/kg

Structure (SMILES): CC(C)(S)[C@@H](N)C(=O)O [D-Penicillamine]
effect in mice Arthus reaction test, in words (Arthus reaction [1]; mouse, in vivo): non-effective
Adjuvant Arthritis (result in words) (adjuvant arthritis [2]; at 200 mg/kg): non-effective
effect in rat adjuvant arthritis test, in words (adjuvant arthritis [2]): non-effective
effect in Arthus reaction, in words (Arthus reaction [3]): non-effective
effect in adjuvant arthritis test, in words (adjuvant arthritis [4]): non-effective

Activity of Inhibition (5-lipoxygenase) (5-lipoxygenase): +++ (70%<)
Structure (SMILES): CN(C)c1noc(Cc2cccc(C(=NO)c3ccccc3)c2)n1 [Example 67]
minimal effective dose (Arthus reaction [1]): 50 mg/kg
minimal effective dose (adjuvant arthritis [2]): 10 mg/kg

Structure (SMILES): CC(c1ccc(-c2ccccc2)c(F)c1)c1csc(N(C)C)n1 (stereo not drawn) [Example 48, 4-(1-(2-fluoro-4-biphenylyl)ethyl)-2-dimethylaminothiazole]
minimal effective dose (Arthus reaction [1]): 50 mg/kg
minimal effective dose (adjuvant arthritis [2]): 10 mg/kg

Structure (SMILES): CNc1nc(C(C)c2ccc(-c3ccccc3)c(F)c2)cs1 (stereo not drawn) [Example 2, 4-[1-(2-fluoro-4-biphenylyl)ethyl]-2-methylaminothiazole]
minimal effective dose (Arthus reaction [1]): 10 mg/kg
minimal effective dose (adjuvant arthritis [2]): 25 mg/kg

Activity of Inhibition (5-lipoxygenase) (5-lipoxygenase): ++ (40-70%)
Structure (SMILES): CC(c1ccc(-c2ccccc2)c(F)c1)c1nc(N)no1 (stereo not drawn) [Example 21, 3-amino-5-(1-(2-fluoro-4-biphenylyl)ethyl)-1,2,4-oxadiazole]
minimal effective dose (Arthus reaction [1]): 10 mg/kg
minimal effective dose (adjuvant arthritis [2]): 2.5 mg/kg

Activity of Inhibition (5-lipoxygenase) (5-lipoxygenase): +++ (70%<)
Structure (SMILES): CC(c1cccc(C(=NO)c2ccccc2)c1)c1nc(N)no1 (stereo not drawn) [Example 65]

Structure (SMILES): c1ccc(CCNc2nc(-c3ccccc3)cs2)cc1 [fanetizole, 2-phenethylamino-4-phenylthiazole]
effect in Arthus reaction, in words (Arthus reaction [3]): effective
effect in adjuvant arthritis test, in words (adjuvant arthritis [4]): non-effective

Activity of Inhibition (5-lipoxygenase) (5-lipoxygenase): +++ (70%<)
Structure (SMILES): CC(c1cccc(C(=O)c2ccccc2)c1)c1nc(N)no1 (stereo not drawn) [Example 22]
minimal effective dose (Arthus reaction [1]): 50 mg/kg
minimal effective dose (adjuvant arthritis [2]): 2.5 mg/kg

Structure (SMILES): CC(c1cccc(C(=O)c2ccccc2)c1)c1nc(N(C)C)no1 (stereo not drawn) [Example 11, 3-dimethylamino-5-(1-(3-benzoylphenyl)ethyl)-1,2,4-oxadiazole]
minimal effective dose (Arthus reaction [1]): 10 mg/kg
minimal effective dose (adjuvant arthritis [2]): 2.5 mg/kg

Structure (SMILES): c1ccc([C@H]2CN3CCSC3=N2)cc1 [levamizole]
minimal effective dose (Arthus reaction [1]): 50 mg/kg
Adjuvant Arthritis (result in words) (adjuvant arthritis [2]; at 50 mg/kg): non-effective
effect in rat adjuvant arthritis test, in words (adjuvant arthritis [2]): non-effective
effect in Arthus reaction, in words (Arthus reaction [3]): effective
side effects [5]: serious side effects
side effects ([5]; listed as Levamizole): many severe side-effects
effect in adjuvant arthritis test, in words (adjuvant arthritis [4]): non-effective
